What was measured:
[1] = tested on: CYPSE (Flatsedge); experiment: Postemergence weed control under flooded paddy conditions; type: in vivo, Cyperus serotinus; conditions: postemergence weeds, rated 3 to 4 weeks after treatment
Summary of the method: (§1)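 Weeds 3 to 5 cm tall and rice seedlings at the 1.5 to 2.5 leaf stage were flooded, with water held 1.5 to 3 cm above the soil. Compounds in 50/50 v/v aqueous/acetone went into the flood water at about 0.0313 to 0.500 kg/ha. Visual 0-9 ratings versus control were made 3 to 4 weeks later.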

[2] = tested on: TRZAWR (Wheat, Winter, cv Riband); experiment: Postemergence herbicidal evaluation; type: in vivo, Triticum aestivum; conditions: postemergence
Summary of the method: (§2)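 Herbicidal effect was judged by eye on a 0–9 scale covering stand, vigor, deformity, size and chlorosis, compared with controls, four to five weeks after seedlings about two weeks old were sprayed (40 psi, ~0.0156–0.500 kg/ha).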

[3] = tested on: CYPIR (Rice Flatsedge); experiment: Preemergence weed control under flooded paddy conditions; type: in vivo, Cyperus iria; conditions: rated 3-4 weeks after treatment
Summary of the method: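 Seeds or propagules sown in top 0.5 cm of silt loam soil, flooded 1.5 to 3 cm above surface throughout. Compound in 50/50 v/v aqueous/acetone pipetted into flood water at about 0.0313 to 0.500 kg/ha. Visual 0-9 rating versus control after three to four weeks in greenhouse.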

[4] = tested on: ZEAMX (Corn, Field); experiment: Postemergence herbicidal evaluation; type: in vivo, Zea mays; conditions: postemergence
Summary of the method: as §2

[5] = tested on: SETVI (Foxtail, Green); experiment: Postemergence herbicidal evaluation; type: in vivo, Setaria viridis; conditions: postemergence
Summary of the method: as §2

[6] = tested on: AMBEL (Ragweed, Common); experiment: Preemergence herbicidal evaluation; type: in vivo, Ambrosia artemisifolia; conditions: preemergence, rated 4-5 weeks after treatment, 0-9 scale
Summary of the method: (§3)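 In this greenhouse assay, monocot and dicot seeds are planted in soil and treated prior to emergence with an aqueous acetone spray (about 0.0156-0.500 kg/ha). Plants are assessed visually against control on a 0-9 scale after 4-5 weeks.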

[7] = tested on: ABUTH (Velvetleaf); experiment: Postemergence herbicidal evaluation; type: in vivo, Abutilon theophrasti; conditions: postemergence
Summary of the method: as §2

[8] = tested on: ORYSAT (Rice, Tebonnet); experiment: Postemergence herbicidal evaluation; type: in vivo, Oryza sativa, (L.) Tebonnet; conditions: postemergence
Summary of the method: as §2

[9] = tested on: GALAP (Galium); experiment: Preemergence herbicidal evaluation; type: in vivo, Galium aparine; conditions: preemergence, rated 4-5 weeks after treatment, 0-9 scale
Summary of the method: as §3

[10] = tested on: SETVI (Foxtail, Green); experiment: Preemergence herbicidal evaluation; type: in vivo, Setaria viridis; conditions: preemergence, rated 4-5 weeks after treatment, 0-9 scale
Summary of the method: as §3

[11] = tested on: ECHORC (Watergrass (Calif.)); experiment: Postemergence weed control under flooded paddy conditions; type: in vivo, Echinochloa oryzoides; conditions: postemergence weeds, rated 3 to 4 weeks after treatment
Summary of the method: as §1

[12] = tested on: CHEAL (Lambsquarters, Common); experiment: Postemergence herbicidal evaluation; type: in vivo, Chenopodium album; conditions: postemergence
Summary of the method: as §2

[13] = tested on: GLXMAW (Soybean, Williams); experiment: Postemergence herbicidal evaluation; type: in vivo, Glycine max, (L.) Merr. cv Williams; conditions: postemergence
Summary of the method: as §2

[14] = tested on: SAGPY (Arrowhead (Pygmaea)); experiment: Postemergence weed control under flooded paddy conditions; type: in vivo, Sagittaria pygmaea; conditions: postemergence weeds, rated 3 to 4 weeks after treatment
Summary of the method: as §1

Question: For `C=CCN1C(=O)C(CC(=O)NC)SC1=Nc1cc(-n2c(=O)cc(C(F)(F)F)n(C)c2=O)c(F)cc1Cl` (centres unmarked) [Compound 84, 3-Allyl-2-{{2-chloro-5-[3,6-dihydro-3-methyl-2,6-dioxo-4-(trifluoromethyl)-1(2H)-pyrimidinyl]-4-fluorophenyl}imino}-N-methyl-4-oxo-5-thiazolidineacetamide], which “Herbicidal rating CYPSE” value ([1]; Rate 0.0313 kg/ha) is on record?
Answer: The value was 0.0.

Question: And the “Herbicidal rating CYPSE” value ([1]; Rate 0.0625 kg/ha)?
Answer: Its value is 3.0.

Question: What about the “Herbicidal rating CYPSE” value ([1]; Rate 0.1250 kg/ha) of the same compound?
Answer: The value was 9.0.

Question: What about the “Herbicidal rating CYPSE” value ([1]; Rate 0.2500 kg/ha) of the same compound?
Answer: Its value is 9.0.

Question: What about the TRZAWR herbicidal rating ([2]; rate 0.0156 kg/ha) of the same compound?
Answer: Its TRZAWR herbicidal rating is 3.0.

Question: What about the TRZAWR herbicidal rating ([2]; rate 0.0313 kg/ha) of the same compound?
Answer: Its TRZAWR herbicidal rating is 3.5.

Question: What about the TRZAWR herbicidal rating ([2]; rate 0.0625 kg/ha) of the same compound?
Answer: The TRZAWR herbicidal rating was 4.5.

Question: And the TRZAWR herbicidal rating ([2]; rate 0.1250 kg/ha)?
Answer: Its TRZAWR herbicidal rating is 5.0.

Question: What about the “CYPIR herbicidal effect rating” value ([3]; 0.0313 kg/ha) of the same compound?
Answer: Its value is 3.0.

Question: And the “CYPIR herbicidal effect rating” value ([3]; 0.0625 kg/ha)?
Answer: The value was 7.0.

Question: And the “CYPIR herbicidal effect rating” value ([3]; 0.1250 kg/ha)?
Answer: The value was 9.0.

Question: What about the “CYPIR herbicidal effect rating” value ([3]; 0.2500 kg/ha) of the same compound?
Answer: The value was 9.0.

Question: And the ZEAMX herbicidal rating ([4]; rate 0.0156 kg/ha)?
Answer: The ZEAMX herbicidal rating was 4.0.

Question: What about the ZEAMX herbicidal rating ([4]; rate 0.0313 kg/ha) of the same compound?
Answer: The ZEAMX herbicidal rating was 4.0.

Question: What about the ZEAMX herbicidal rating ([4]; rate 0.0625 kg/ha) of the same compound?
Answer: The ZEAMX herbicidal rating was 4.5.

Question: What about the ZEAMX herbicidal rating ([4]; rate 0.1250 kg/ha) of the same compound?
Answer: The ZEAMX herbicidal rating was 5.0.

Question: What about the SETVI herbicidal rating ([5]; rate 0.0156 kg/ha) of the same compound?
Answer: The SETVI herbicidal rating was 0.0.

Question: What about the SETVI herbicidal rating ([5]; rate 0.0313 kg/ha) of the same compound?
Answer: The SETVI herbicidal rating was 0.0.

Question: And the SETVI herbicidal rating ([5]; rate 0.0625 kg/ha)?
Answer: Its SETVI herbicidal rating is 0.0.

Question: And the SETVI herbicidal rating ([5]; rate 0.1250 kg/ha)?
Answer: The SETVI herbicidal rating was 2.0.

Question: What about the AMBEL rating ([6]; 0.0156 kg/ha) of the same compound?
Answer: Its AMBEL rating is 0.0.

Question: What about the AMBEL rating ([6]; 0.0313 kg/ha) of the same compound?
Answer: The AMBEL rating was 3.0.

Question: And the AMBEL rating ([6]; 0.0625 kg/ha)?
Answer: The AMBEL rating was 4.0.

Question: What about the AMBEL rating ([6]; 0.1250 kg/ha) of the same compound?
Answer: The AMBEL rating was 9.0.

Question: What about the AMBEL rating ([6]; 0.2500 kg/ha) of the same compound?
Answer: The AMBEL rating was 9.0.

Question: And the AMBEL rating ([6]; 0.5000 kg/ha)?
Answer: The AMBEL rating was 9.0.

Question: What about the ABUTH herbicidal rating ([7]; rate 0.0156 kg/ha) of the same compound?
Answer: Its ABUTH herbicidal rating is 9.0.

Question: What about the ABUTH herbicidal rating ([7]; rate 0.0313 kg/ha) of the same compound?
Answer: Its ABUTH herbicidal rating is 9.0.

Question: And the ABUTH herbicidal rating ([7]; rate 0.0625 kg/ha)?
Answer: Its ABUTH herbicidal rating is 9.0.

Question: And the ABUTH herbicidal rating ([7]; rate 0.1250 kg/ha)?
Answer: The ABUTH herbicidal rating was 9.0.

Question: What about the ORYSAT herbicidal rating ([8]; rate 0.0156 kg/ha) of the same compound?
Answer: The ORYSAT herbicidal rating was 0.5.

Question: And the ORYSAT herbicidal rating ([8]; rate 0.0313 kg/ha)?
Answer: The ORYSAT herbicidal rating was 1.0.

Question: What about the ORYSAT herbicidal rating ([8]; rate 0.0625 kg/ha) of the same compound?
Answer: The ORYSAT herbicidal rating was 1.5.

Question: What about the ORYSAT herbicidal rating ([8]; rate 0.1250 kg/ha) of the same compound?
Answer: Its ORYSAT herbicidal rating is 3.0.

Question: And the GALAP rating ([9]; 0.0156 kg/ha)?
Answer: Its GALAP rating is 0.0.

Question: And the GALAP rating ([9]; 0.0313 kg/ha)?
Answer: The GALAP rating was 0.0.

Question: What about the GALAP rating ([9]; 0.0625 kg/ha) of the same compound?
Answer: Its GALAP rating is 0.0.

Question: What about the GALAP rating ([9]; 0.1250 kg/ha) of the same compound?
Answer: Its GALAP rating is 0.0.

Question: And the GALAP rating ([9]; 0.2500 kg/ha)?
Answer: The GALAP rating was 5.0.

Question: And the GALAP rating ([9]; 0.5000 kg/ha)?
Answer: Its GALAP rating is 5.0.

Question: What about the SETVI rating ([10]; 0.0156 kg/ha) of the same compound?
Answer: Its SETVI rating is 0.0.

Question: What about the SETVI rating ([10]; 0.0313 kg/ha) of the same compound?
Answer: Its SETVI rating is 0.0.

Question: And the SETVI rating ([10]; 0.0625 kg/ha)?
Answer: The SETVI rating was 0.0.

Question: What about the SETVI rating ([10]; 0.1250 kg/ha) of the same compound?
Answer: Its SETVI rating is 3.0.

Question: What about the SETVI rating ([10]; 0.2500 kg/ha) of the same compound?
Answer: Its SETVI rating is 9.0.

Question: What about the SETVI rating ([10]; 0.5000 kg/ha) of the same compound?
Answer: Its SETVI rating is 9.0.

Question: And the “Herbicidal rating ECHORC” value ([11]; Rate 0.0313 kg/ha)?
Answer: The value was 4.0.

Question: And the “Herbicidal rating ECHORC” value ([11]; Rate 0.0625 kg/ha)?
Answer: Its value is 5.0.

Question: And the “Herbicidal rating ECHORC” value ([11]; Rate 0.1250 kg/ha)?
Answer: The value was 7.0.

Question: And the “Herbicidal rating ECHORC” value ([11]; Rate 0.2500 kg/ha)?
Answer: Its value is 9.0.

Question: What about the CHEAL herbicidal rating ([12]; rate 0.0156 kg/ha) of the same compound?
Answer: Its CHEAL herbicidal rating is 6.0.

Question: And the CHEAL herbicidal rating ([12]; rate 0.0313 kg/ha)?
Answer: Its CHEAL herbicidal rating is 7.0.

Question: And the CHEAL herbicidal rating ([12]; rate 0.0625 kg/ha)?
Answer: The CHEAL herbicidal rating was 9.0.

Question: And the CHEAL herbicidal rating ([12]; rate 0.1250 kg/ha)?
Answer: The CHEAL herbicidal rating was 9.0.

Question: And the GLXMAW herbicidal rating ([13]; rate 0.0156 kg/ha)?
Answer: Its GLXMAW herbicidal rating is 4.0.

Question: What about the GLXMAW herbicidal rating ([13]; rate 0.0313 kg/ha) of the same compound?
Answer: The GLXMAW herbicidal rating was 4.5.

Question: And the GLXMAW herbicidal rating ([13]; rate 0.0625 kg/ha)?
Answer: Its GLXMAW herbicidal rating is 4.5.

Question: What about the GLXMAW herbicidal rating ([13]; rate 0.1250 kg/ha) of the same compound?
Answer: Its GLXMAW herbicidal rating is 8.5.

Question: What about the “Herbicidal rating SAGPY” value ([14]; Rate 0.0313 kg/ha) of the same compound?
Answer: The value was 2.0.

Question: And the “Herbicidal rating SAGPY” value ([14]; Rate 0.0625 kg/ha)?
Answer: Its value is 6.0.

Question: And the “Herbicidal rating SAGPY” value ([14]; Rate 0.1250 kg/ha)?
Answer: Its value is 7.0.

Question: And the “Herbicidal rating SAGPY” value ([14]; Rate 0.2500 kg/ha)?
Answer: Its value is 9.0.

Reference: US20020137929A1, “1 - (3-heterocyclylphenyl) isothiourea, -isourea, -guanidine and -amidine herbicidal agents” (Intellectual Property Department, BASF Aktiengesellschaft, priority 1998, published 2002)
